How the values were obtained:
IL-2 = assay: T-cell costimulation: IL-2 production (immobilized anti-CD3, ELISA); format: cell-based; settings: Homo sapiens, 48 h, immobilized anti-CD3, 2 days, read-out: EC50 for co-stimulated IL-2 production by T cells
Experimental: CRBN ubiquitination was measured in HEK293T cells, which were transfected with an amino-terminal His-biotin-tagged CRBN construct, then preincubated with compounds for one hour followed by treatment with the MG132 proteasome inhibitor (to arrest degradation of ubiquitinated proteins). Cells were lysed and processed to measure CRBN ubiquitination by SDS-PAGE and immunoblot analysis using an anti-ubiquitin antibody. Cell proliferation studies were conducted in enalidomide-sensitive and refractory multiple myeloma cells. […] T-cell costimulation was measured in purified primary human T cells stimulated using immobilized anti-CD3 antibody in cell culture for 2 days, and cytokine secretion was measured by ELISA.

BLIMP-1, XBP-1, and IgJ = assay: Plasmablast lineage factor gene expression (qRT-PCR), SLE patient PBMC; format: cell-based, human; settings: 20 nM, n=3
CD44 = CD44 expression in B cell differentiation culture (flow cytometry); format: cell-based, human; settings: Day 7; for percentage of CD20high/CD44high cells: DMSO 22.2%
Experimental: (§1) Immunophenotyping For Flow Cytometric Analysis: Cells were stained using multicolor direct immunofluorescence stain for flow cytometric analysis. Surface staining was performed before cell fixation and permeabilization. Cells (50 μl; 1×10^6 cells/ml in washing buffer, 2% FBS with 0.1% NaN3 in PBS) were used for each staining. The cells were stained with isotype control mAb ([…]) and multicolor FITC-conjugated anti-CD20 mAb and PE-conjugated anti-CD38 mAb, or PerCP-Cy5.5 conjugated anti-CD44 mAb, PE-conjugated anti-CD83 mAb were used for day 4 activated B cells (CD20+CD38-cells), and day 4 PBs and day 7 PBs (CD20-CD38+), and other staining, analyzed by flow cytometry as per manufacturer's instructions. The intracellular staining of transcription factor proteins (BCL-6, IRF-4, BLIMP-1, PAX-5 and XBP-1) and IgJ was performed according to the manufacturer's recommendations. Flow cytometric analysis was performed with a FACSCanto using FACSDiva 6 (BD Biosciences). For data analysis, Flowjo (Tree Star) software was used.
Using the same B cells in vitro differentiation system, the activity of the test compound on CD44 and CD83 expression in B cell differentiation was further investigated. Multicolor FITC-conjugated anti-CD20 mAb, PerCP Cy5.5-conjugated anti-CD44 mAb and PE-conjugated anti-CD83 mAb are used for day 4 and day 7 cells. The effect of the test compound was evaluated from 3 separate experiments representative of 3 donors.

SSc fibroblasts = assay: Fibrotic gene expression in SSc skin fibroblasts (real time PCR); format: cell-based, human; settings: 24 hours
Experimental: Cell cultures: Human normal and scleroderma skin fibroblasts were cultured in DMEM containing 10% fetal bovine serum (FBS). The cells were maintained in a humidified 5% CO2, 95% air incubator at 37° C. After confluence was reached, the cells were harvested with 0.05% trypsin and subcultured. Cells were used in the 3rd-5th passage.
Experimental design: Cells were grown to 70-80% confluence and placed into quiescent state by a reduction in serum concentration to 0.4% for overnight. The effects of the compound on TGFβ fibrotic effects and on NL and SSc fibrotic gene expression were tested.
Effects of the compound on SSc-FB: SSc fibrobasts were treated with the compound at different concentration and gene expression levels of Collagen 1A1 (COL1), α-smooth muscle actin (α-SMA), fibronectin (FN), matrix metallopeptidase 1 (MMP1), plasminogen activator inhibitor (PAI), and DNA (cytosine-5-)-methyltransferase 1 (Dnmt1) were determined 24 hours later by real time PCR.
Quantitative Real-Time PCR: Total RNA was extracted from cells using RNeasy kit. RNA concentration was measured and 1 ug of RNA was reverse transcribed to cDNA using RT-First strand kit. The cDNA was then amplified using respective primers and Power SYBR Green PCR Master Mix. The amplicon (150-200 bp) was detected by ABI 7500 Real Time PCR System. All the target genes were normalized to GAPDH and relative fold changes were calculated. Each sample was assessed in triplicate.

[1] = test system: BCL-6, IRF-4, BLIMP-1, PAX5 and XBP-1; assay: Transcription factor protein expression by intracellular flow cytometry, normal B cell differentiation; format: cell-based, human
Experimental: as §1
B cells were cultured as described in above and cells were harvested at day 4, day 7 for immunofluoresence staining. The cells were first stained for CD20 and CD38, and after cell permeabilization, stained for BCL-6, IRF-4, BLIMP-1, PAX5 and XBP-1, then were analyzed by gating on whole lymphocytes.

IgJ = assay: Ig J chain intracellular staining in B cell differentiation culture; format: cell-based, human
Experimental: as §1
High level IgJ chain expression in rheumatoid arthritis (RA) patients predicts lack of response to rituximab.

BCL-6, IRF-4 and BLIMP-1 = assay: Transcription factor protein expression by laser scanning cytometry, SLE patient PBMC; format: cell-based, human; settings: CD38+ plasmablast/plasma cells, Day 4 and Day 7 SLE patient PBMC
Experimental: Preparation Of Cytospin From Single Cell Suspension And Immunofluorescence Staining for iCyte: A cell suspension of not more than 0.5×10^6 cells/ml of 2% FBS-containing PBS was prepared. Up to 200 μl of this suspension was loaded in each cuvette and spinned at 800 rpm for 3 min. The cuvette and the paper were carefully detached without damaging the fresh cytospin and proceeded with either immediate fixation or drying. Unfixed cytospins were stored for max 2 days at room temperature. Cells on slides were fixed with increasing concentrations of EtOH and allowed to dry prior to staining. After blocking non-specific binding with normal serum (species same as secondary antibody), sections were incubated with the mixture of following monoclonal antibodies in a humidified chamber at cool room for overnight: (i) anti-human CD38 as plasmablast cell marker, and (ii) anti-BCL-6, IRF-4, BLIMP-1, PAX5 and XBP-1 for transcription factor proteins. After washings, slides were incubated for 1 hr at room temperature in dark with the mixture of secondary antibodies which were raised in different species (with two different fluorochromes, i.e., Alexa Fluor-488 and Alexa Fluor-633). The slides were then rinsed in PBS, counterstained with DAPI for 20 minutes at room temperature, coverslipped with anti-fade fluorescent mounting medium, and sealed with nail polish. The slides were stored in dark at 4° C. To exclude false positives produced by nonspecific binding of the secondary antibody, all of the tissues were treated in the same manner with buffer substituting for the primary antibody. The color of the antibody staining was observed and quantity was analyzed in the tissue sections using iCyte.

## O=C1CC[C@H](N2Cc3c(OCc4ccc(CN5CCOCC5)cc4)cccc3C2=O)C(=O)N1 [Test compound, (S)-3-[4-(4-morphlin-4-ylmethylbenzyloxy)-1-oxo-1,3-dihydro-isoindo-2-yl]piperidine-2,6-dione]
IL-2
  EC50: ~0.29 nM
BLIMP-1, XBP-1, and IgJ
  BLIMP-1 gene expression: 52.8 % of control
  IgJ gene expression: 13.6 % of control
  XBP-1 gene expression: 49.2 % of control
CD44
  CD44 mean fluorescence intensity (MFI): dose-dependently and significantly decreased
CD44; 2 nM
  percentage of CD20high/CD44high cells: 18.4%
CD44; 20 nM
  percentage of CD20high/CD44high cells: 10.1%
CD44; 200 nM
  percentage of CD20high/CD44high cells: 6.6%
SSc fibroblasts
  expression of COL1 mRNA: dose dependently reduced
  expression of Dnmt1: dose dependently reduced
  expression of FN mRNA: dose dependently reduced
  expression of MMP-1: dose dependently increased
  expression of PAI: dose dependently reduced
  expression of aSMA mRNA: dose dependently reduced
[1]; Day 4, 20 nM
  BLIMP-1 protein expression: significantly decreased
  IRF-4 protein expression: significantly decreased
  XBP-1 protein expression: significantly decreased
[1]; Day 7, 20 nM
  BCL-6 protein expression: significantly increased
IgJ
  MFI of IgJ within the positive cells: decreased
IgJ; Day 4, 20 nM, DMSO 13.1%±1.5%
  number of IgJ-positive cells: 8.4%
IgJ; Day 4, 200 nM, DMSO 13.1%±1.5%
  number of IgJ-positive cells: 5.4%
IgJ; Day 4 B cell differentiation cultures, three donors
  Ig J chain expression: dose-dependently and significantly reduced
IgJ; Day 7, 20 nM, DMSO 14.4%±4.3
  number of IgJ-positive cells: 13.2%
IgJ; Day 7, 200 nM, DMSO 14.4%±4.3
  number of IgJ-positive cells: 7.2%
BCL-6, IRF-4 and BLIMP-1
  BCL-6 expression: significantly increased
  BLIMP-1 expression: inhibited
  RF-4 expression: inhibited
BCL-6, IRF-4 and BLIMP-1; listed as Compound I-S
  BCL-6 expression: increased
  BLIMP-1 expression: significantly reduced
  RF-4 expression: significantly reduced

From patent US11524950B2, “Treatment of immune-related and inflammatory diseases” (Celgene Corporation, priority 2012, dated 2022)
